A word on the IC50: it is the concentration that inhibits the measured activity by half.

Test [1] concerns WiDr, SW620, HT29, HEK_LTV, and T84 cell lines. Briefly: cell proliferation and growth inhibition assay (CCK-8), cell line panel. Type of test: cell-based, human. Particulars: 72 h, FIG. 12. The procedure: Cell Proliferation and Growth Inhibition Assay. HT-29, HCT-116, WiDr, SW620, SW480, T84, A549, MCF-7, HepG2, Hela cells were cultured in respective growth medium. Cells of log phase were used. 3000-5000 cells/well were seeded in 96-well plates with a 100 μL volume. After 24 h, Compounds were dissolved to […] with DMSO, and a 3-fold serial dilution of the compounds from 5×10^−5 M to […] was performed. 2 μL of compound solution was added to 998 μL of growth medium, the mixture was vortexed sufficiently. 100 μL of the mixture was correspondingly added to the 96-well plate. 2 μL DMSO instead of compound solution was used as the 0% inhibitor control. After coincubation for 72 h, the old medium was removed and 100 μL of 10% CCK-8 in culture medium was added. 2 h later the plates were read in the microplate reader (Bio-Rad) at 450 nm. The data was calculated using Graph Pad Prism version 5.0. The IC50 were fitted using a nonlinear regression model with a sigmoidal dose response.

In another test the test system is Wnt/β-catenin pathway. Description: dual-luciferase TCF/LEF reporter assay, LiCl-activated, HEK293 cells. It counts as cell-based. The procedure: Lithium chloride (LiCl), which has been previously established as an activator of the Wnt/β-catenin pathway through its direct and indirect effects on GSK3β was used for pathway activation. The inhibition of the Wnt/β-catenin pathway by a compound may be determined after its incubation with cells for 24 hours.
The assay provided herein is a dual-luciferase assay to measure Wnt/β-catenin pathway activation using a TCF/LEF responsive reporter construct similar to that described previously (Thorne et al., 2010).
(A reporter such as luciferase makes a cellular process visible.)

The mark [2] stands for this setting: Homo sapiens, HEK293, 24 h, At 1 μM concentration, remaining Wnt signaling activity, read-out: RLU % (Relative Light Units in reporter gene assays).
Where [3] appears, read: Homo sapiens, HEK293, Table 3, values in μM, read-out: IC50.
The mark [4] stands for this setting: Homo sapiens, HEK293, Table 6, read-out: IC50 (nM) or remaining activity at 1 μM: IC50.
The mark [5] stands for this setting: Homo sapiens, HEK293, Table 3, values in nM, read-out: IC50.

Like-named read-outs stand apart in the source and are kept apart here. Where only a bound is given, the exact number is not on record here.

In the case of `Cc1c(C(=O)Nc2ccc3ccccc3n2)cnn1C(C)(C)C` [YW2049, 1-(Tert-butyl)-5-methyl-N-(quinolin-2-yl)-1H-pyrazole-4-carboxamide], in test [1], the growth inhibitory activity result is on record as “micromolar growth inhibitory activity”.

Regarding `Cc1ccc(-n2nnc(C(=O)Nc3nc(-c4ccccc4)c(-c4ccccc4)s3)c2C)cc1` [YW1125, N-(4,5-diphenylthiazol-2-yl)-5-methyl-1-(p-tolyl)-1H-1,2,3-triazole-4-carboxamide], the activity at 1 µM in the test on Wnt/β-catenin pathway (setting [2]) was 55.1%.

As for `Cc1ccccc1-n1nnc(C(=O)Nc2ccc3ccccc3c2)c1C` [Compound 31, 5-Methyl-N-(naphthalen-2-yl)-1-(o-tolyl)-1H-1,2,3-triazole-4-carboxamide], in the test on Wnt/β-catenin pathway (Table 7, read-out: IC50), the IC50 amounted to 0.471 µM.

On to `Cc1ccc(-n2nnc(C(=O)Nc3cc(C)no3)c2C)cc1` [YW1124, 5-Methyl-N-(3-methylisoxazol-5-yl)-1-(p-tolyl)-1H-1,2,3-triazole-4-carboxamide], for which, in the test with Wnt/β-catenin pathway (setting [2]), the activity at 1 µM amounted to 121%. Further, the IC50 with Wnt/β-catenin pathway (setting [3]) was determined as 48 µM.

Turning to `Cc1c(C(=O)Nc2ccc3ccccc3n2)nnn1-c1ccc(F)cc1[N+](=O)[O-]` [YW1171, 1-(4-Fluoro-2-nitrophenyl)-5-methyl-N-(quinolin-2-yl)-1H-1,2,3-triazole-4-carboxamide], the activity at 1 µM with Wnt/β-catenin pathway (setting [2]) amounted to 77.8%. For the same molecule, the 50% inhibitory concentration (IC50) in the test on Wnt/β-catenin pathway (setting [3]) was determined as 5 µM.

As for `Cc1c(C(=O)Nc2ccc3ccccc3n2)nnn1-c1ccccc1C#N` [Compound 34, 1-(2-Cyanophenyl)-5-methyl-N-(quinolin-2-yl)-1H-1,2,3-triazole-4-carboxamide], in the test on Wnt/β-catenin pathway (setting [4]), the half-inhibitory concentration (IC50) was 0.076 µM.

On to `Cc1ccc(-n2c(C)cc(C(=O)Nc3cnccn3)c2C)cc1` [Compound 15, 2,5-Dimethyl-N-(pyrazin-2-yl)-1-(p-tolyl)-1H-pyrrole-3-carboxamide], for which, in the test with Wnt/β-catenin pathway (Homo sapiens, HEK293, Table 4, @ 1 μM, read-out: IC50 (nM) or remaining activity at 1 μM: remaining activity), the activity at 1 µM was 112%.

For `Cc1ccc(-n2nnc(C(=O)Nc3ccc4ccccc4n3)c2C)c(C)c1` [YW1179, 1-(2,4-Dimethylphenyl)-5-methyl-N-(quinolin-2-yl)-1H-1,2,3-triazole-4-carboxamide], the activity at 1 µM in the test on Wnt/β-catenin pathway (setting [2]) worked out at 10.6%. The IC50 in the test on Wnt/β-catenin pathway (setting [5]) came to 0.13 µM.

`Cc1c(C(=O)Nc2ccc3ccccc3n2)nnn1-c1ccccc1C#N` [YW1157, 1-(2-Cyanophenyl)-5-methyl-N-(quinolin-2-yl)-1H-1,2,3-triazole-4-carboxamide]: the activity at 1 µM in the test on Wnt/β-catenin pathway (setting [2]) is 6.5%. Also, the IC50 in the test on Wnt/β-catenin pathway (setting [5]) was determined as 0.076 µM.

Consider `Cc1c(C(=O)Nc2ccc3ccccc3n2)nnn1-c1ccccc1N1CCOCC1` [YW1155, 5-Methyl-1-(2-morpholinophenyl)-N-(quinolin-2-yl)-1H-1,2,3-triazole-4-carboxamide], for which the activity at 1 µM in the test with Wnt/β-catenin pathway (setting [2]) came out at 99.8%.

As to `Cc1ccc(-n2c(C)cc(C(=O)Nc3cnccn3)c2C)cc1` [YW1117-2, 2,5-Dimethyl-N-(pyrazin-2-yl)-1-(p-tolyl)-1H-pyrrole-3-carboxamide], the activity at 1 µM with Wnt/β-catenin pathway (setting [2]) came out at 113%.

As to `Cc1c(C(=O)Nc2ccc3ccccc3n2)nnn1-c1cccc(Cl)c1` [Compound 44, 1-(3-Chlorophenyl)-5-methyl-N-(quinolin-2-yl)-1H-1,2,3-triazole-4-carboxamide], the concentration for half-maximal inhibition (IC50) with Wnt/β-catenin pathway (setting [4]) amounted to 0.731 µM.

`CC(=O)c1ccccc1-n1nnc(C(=O)Nc2ccc3ccccc3n2)c1C` [Compound 39, 1-(2-Acetylphenyl)-5-methyl-N-(quinolin-2-yl)-1H-1,2,3-triazole-4-carboxamide]: the half-maximal inhibitory concentration (IC50) in the test on Wnt/β-catenin pathway (setting [4]) is 0.814 µM.

Take `Cc1cccc(-n2nnc(C(=O)Nc3ccc4ccccc4n3)c2C)c1C` [Compound 42, 1-(2,3-Dimethylphenyl)-5-methyl-N-(quinolin-2-yl)-1H-1,2,3-triazole-4-carboxamide]: in the test on Wnt/β-catenin pathway (setting [4]), the half-inhibitory concentration (IC50) was determined as 0.567 µM.

In the case of `Cc1c(C(=O)Nc2ccc3ccccc3n2)nnn1-c1ccccc1Br` [YW1169, 1-(2-Bromophenyl)-5-methyl-N-(quinolin-2-yl)-1H-1,2,3-triazole-4-carboxamide], in the test on Wnt/β-catenin pathway (setting [2]), the activity at 1 µM amounted to 3.2%. For the same molecule, in the test on Wnt/β-catenin pathway (setting [5]), the IC50 came out at 0.01 µM.

On to `Cc1c(C(=O)Nc2ccc3ccccc3n2)nnn1-c1ccccc1N1CCOCC1` [Compound 37, 5-Methyl-1-(2-morpholinophenyl)-N-(quinolin-2-yl)-1H-1,2,3-triazole-4-carboxamide], for which the IC50 with Wnt/β-catenin pathway (setting [4]) was above 1 µM.

Turning to “1-(2-Fluorophenyl)-5-methyl-N-(quinolin-2-yl)-1H-pyrazole-4-carboxamide [YW2035]”, the growth inhibitory activity entry in test [1] is listed as “micromolar growth inhibitory activity”.

In the case of `Cc1ccc(-n2nnc(C(=O)Nc3cccc(C)n3)c2C)cc1` [YW1134, 5-Methyl-N-(6-methylpyridin-2-yl)-1-(p-tolyl)-1H-1,2,3-triazole-4-carboxamide], the activity at 1 µM in the test with Wnt/β-catenin pathway (setting [2]) amounted to 79.5%. Besides, the IC50 in the test with Wnt/β-catenin pathway (setting [5]) was 0.273 µM.

Turning to `Cc1c(C(=O)Nc2ccc3ccccc3n2)nnn1-c1ccccc1C(N)=O` [YW1182, 1-(2-Carbamoylphenyl)-5-methyl-N-(quinolin-2-yl)-1H-1,2,3-triazole-4-carboxamide], the activity at 1 µM in the test with Wnt/β-catenin pathway (setting [2]) came to 89.9%. Further, the 50% inhibitory concentration (IC50) with Wnt/β-catenin pathway (setting [3]) is above 100 µM.

As for `Cc1ccc(-n2nnc(C(=O)Nc3cccc(C)n3)c2C)cc1` [Compound 21, 5-Methyl-N-(6-methylpyridin-2-yl)-1-(p-tolyl)-1H-1,2,3-triazole-4-carboxamide], the IC50 in the test on Wnt/β-catenin pathway (Homo sapiens, HEK293, Table 5, read-out: IC50 (nM) or remaining activity at 1 μM: IC50) stood at 0.273 µM.

Take `COc1ccccc1-n1nnc(C(=O)Nc2ccc3ccccc3n2)c1C` [Compound 35, 1-(2-Methoxyphenyl)-5-methyl-N-(quinolin-2-yl)-1H-1,2,3-triazole-4-carboxamide]: in the test on Wnt/β-catenin pathway (setting [4]), the half-maximal inhibitory concentration (IC50) was determined as 0.088 µM.

For `CC(C)c1c(C(=O)Nc2ccc3ccccc3n2)nnn1-c1ccccc1F` [YW2020, 1-(2-Fluorophenyl)-5-isopropyl-N-(quinolin-2-yl)-1H-1,2,3-triazole-4-carboxamide], the activity at 1 µM with Wnt/β-catenin pathway (setting [2]) amounted to 17.7%. Moreover, the IC50 in the test with Wnt/β-catenin pathway (setting [5]) stood at 0.177 µM.

On to `Cc1cccc(-n2nnc(C(=O)Nc3ccc4ccccc4n3)c2C)c1C` [YW1170, 1-(2,3-Dimethylphenyl)-5-methyl-N-(quinolin-2-yl)-1H-1,2,3-triazole-4-carboxamide], for which the activity at 1 µM in the test on Wnt/β-catenin pathway (setting [2]) was determined as 17.8%. In addition, the 50% inhibitory concentration (IC50) in the test on Wnt/β-catenin pathway (setting [5]) is 0.567 µM.

In the case of `Cc1ccccc1-n1nnc(C(=O)Nc2nc(-c3ccccc3)cs2)c1C` [Compound 30, 5-Methyl-N-(4-phenylthiazol-2-yl)-1-(o-tolyl)-1H-1,2,3-triazole-4-carboxamide], in the test with Wnt/β-catenin pathway (Table 7, read-out: IC50), the IC50 was 22 µM.

For the origin of these results see patent publication US12378220B2, “WNT signaling pathway inhibitors for treatments of disease” (University of Maryland, Baltimore, priority 2016, dated 2025).
